Results from patent US20060160824A1, “Indole derivatives as serotonin reuptake inhibitors” (priority 2003, published 2006).

Tests used:
[1] = target: T1, 5-HT1A receptor (Rattus norvegicus, UniProt P19327); assay: 5-HT1A receptor binding test
T1 construct: from tissue
T1 sequence (P19327 1-422): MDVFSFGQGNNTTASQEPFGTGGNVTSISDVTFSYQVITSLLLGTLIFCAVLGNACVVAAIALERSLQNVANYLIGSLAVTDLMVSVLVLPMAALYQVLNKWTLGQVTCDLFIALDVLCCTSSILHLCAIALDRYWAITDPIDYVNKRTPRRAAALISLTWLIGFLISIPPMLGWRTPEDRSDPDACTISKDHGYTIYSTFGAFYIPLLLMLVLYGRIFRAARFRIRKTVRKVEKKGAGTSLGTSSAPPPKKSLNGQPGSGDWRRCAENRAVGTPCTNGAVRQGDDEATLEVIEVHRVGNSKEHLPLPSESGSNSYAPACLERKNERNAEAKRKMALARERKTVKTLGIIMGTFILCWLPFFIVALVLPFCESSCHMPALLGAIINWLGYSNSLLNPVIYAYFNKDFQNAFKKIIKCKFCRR
Source text: In particular, they inhibit 5-HT reuptake. […] Due to a 5-HT-agonistic action and 5-HT reuptake inhibition, serotonin remains in the synaptic cleft for longer and the serotonin action is reinforced. Active ingredients having such properties are therefore particularly suitable as antidepressants and anxiolytics. The compounds of the formula I inhibit the binding of tritiated serotonin ligands to hippocampal receptors (Cossery et al., European J. Pharmacol. 140 (1987), 143-155) and synaptosomal serotonin reuptake (Sherman et al., Life Sci. 23 (1978), 1863-1870).
The 5-HT1A-agonistic action can be measured in vitro, for example, with the aid of the (serotonin) binding test, as described by Matzen et al. (J. Med. Chem., 43 (2000), 1149-57), in particular on page 1156 with reference to Eur. J. Pharmacol., 140 (1987), 143-155. In addition, the 5-HT1A-agonistic action can be measured with the aid of the GTPgammaS test described by Newman-Tancredi et al. (Eur. J. Pharmacol. 307 (1996), 107-11).

[2] = target: 5-HT4 receptor (Homo sapiens, UniProt Q13639); assay: 5-HT4 receptor binding test
5-HT4 receptor, sequence (Q13639 whole entry): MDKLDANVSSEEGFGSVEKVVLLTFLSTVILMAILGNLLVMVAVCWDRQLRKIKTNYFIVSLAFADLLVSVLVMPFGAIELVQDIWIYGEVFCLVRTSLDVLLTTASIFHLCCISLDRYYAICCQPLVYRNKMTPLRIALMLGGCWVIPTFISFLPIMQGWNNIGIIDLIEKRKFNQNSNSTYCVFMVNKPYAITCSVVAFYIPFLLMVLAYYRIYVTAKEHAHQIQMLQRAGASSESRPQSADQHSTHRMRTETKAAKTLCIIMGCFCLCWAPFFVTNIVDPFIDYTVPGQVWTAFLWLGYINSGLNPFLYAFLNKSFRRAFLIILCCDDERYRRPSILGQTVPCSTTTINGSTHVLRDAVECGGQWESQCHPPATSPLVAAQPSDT

IC50 [1]: 96 nM
IC50 [2]: 21 nM
Structure (SMILES): Cn1cc(CCCCN2CCN(c3ccc4oc(C(N)=O)cc4c3)CC2)c2cc(C#N)ccc21 [Example 1, 5-{4-[4-(5-cyano-1-methyl-1H-indol-3-yl)butyl]piperazin-1-yl}-benzofuran-2-carboxamide]
